Measured values published in ChEMBL document CHEMBL1201862, “PubChem BioAssay data set” (2004).
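A five-concentration, 48-hour dose response in 96-well plates underlies each endpoint, interpolated linearly between surrounding concentrations. GI50 marks 50% less growth.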 The source made the active and inactive calls. Rule as the data show it: active = GI50 up to about 1.1 µM and inactive = higher.

Columns and labels:
Assay in all cases: growth of human tumour cells (NCI), 48 h
HOP-62 = tested on: HOP-62
COLO 205 = tested on: COLO 205
786-0 = tested on: 786-0
NCI-H23 = tested on: NCI-H23
IGROV-1 = tested on: IGROV-1
SF-295 = tested on: SF-295
SNB-19 = tested on: SNB-19
NCI/ADR-RES = tested on: NCI/ADR-RES
U-251 = tested on: U-251
SK-MEL-2 = tested on: SK-MEL-2
UACC-62 = tested on: UACC-62
HCT-116 = tested on: HCT-116
HCC 2998 = tested on: HCC 2998
SF-268 = tested on: SF-268
PC-3 = tested on: PC-3
SK-MEL-28 = tested on: SK-MEL-28
OVCAR-3 = tested on: OVCAR-3
NCI-H522 = tested on: NCI-H522
RPMI-8226 = tested on: RPMI-8226
M14 = tested on: M14
RXF 393 = tested on: RXF 393
Hs-578T = tested on: Hs-578T
SK-OV-3 = tested on: SK-OV-3
HT-29 = tested on: HT-29
OVCAR-8 = tested on: OVCAR-8
OVCAR-5 = tested on: OVCAR-5
LOX IMVI = tested on: LOX IMVI
MCF7 = tested on: MCF7
DU-145 = tested on: DU-145
EKVX = tested on: EKVX
Malme-3M = tested on: Malme-3M
CAKI-1 = tested on: CAKI-1
MOLT-4 = tested on: MOLT-4
KM12 = tested on: KM12
MDA-N = tested on: MDA-N
UO-31 = tested on: UO-31
BT-549 = tested on: BT-549
NCI-H226 = tested on: NCI-H226
MDA-MB-435 = tested on: MDA-MB-435
SN12C = tested on: SN12C
A498 = tested on: A498
SNB-75 = tested on: SNB-75
ACHN = tested on: ACHN
UACC-257 = tested on: UACC-257
T47D = tested on: T47D
K562 = tested on: K562
SR = tested on: SR
SF-539 = tested on: SF-539
SK-MEL-5 = tested on: SK-MEL-5
HOP-92 = tested on: HOP-92
A549 = tested on: A549
CCRF-CEM = tested on: CCRF-CEM
HCT-15 = tested on: HCT-15
MDA-MB-231 = tested on: MDA-MB-231
OVCAR-4 = tested on: OVCAR-4
SW-620 = tested on: SW-620
TK-10 = tested on: TK-10
NCI-H460 = tested on: NCI-H460
HL-60 = tested on: HL-60

Measured: GI50

N=c1oc2ccc(Cl)cc2cc1C(=O)Nc1ccccc1
inactive: HOP-62 21.6 µM | COLO 205 > 100 µM | 786-0 10.7 µM | NCI-H23 > 48.5 µM | IGROV-1 26.1 µM | SF-295 > 100 µM | SNB-19 > 62.5 µM | NCI/ADR-RES 17.3 µM | U-251 > 46.1 µM | SK-MEL-2 > 100 µM | UACC-62 > 100 µM | HCT-116 > 59 µM | HCC 2998 36.3 µM | SF-268 > 76 µM | PC-3 > 100 µM | SK-MEL-28 > 100 µM | OVCAR-3 > 100 µM | NCI-H522 5.11 µM | RPMI-8226 > 100 µM | M14 > 100 µM | RXF 393 26.2 µM | Hs-578T 15.4 µM | SK-OV-3 23.3 µM | HT-29 > 100 µM | OVCAR-8 56.5 µM | OVCAR-5 > 100 µM | LOX IMVI > 100 µM | MCF7 19.6 µM | DU-145 > 100 µM | EKVX > 59 µM | Malme-3M 6.5 µM | CAKI-1 11.1 µM | MOLT-4 > 100 µM | KM12 79.4 µM | MDA-N > 100 µM | UO-31 > 47 µM | BT-549 > 54 µM | NCI-H226 > 100 µM | MDA-MB-435 > 100 µM | SN12C > 100 µM | A498 > 100 µM | SNB-75 23.6 µM | ACHN 45.8 µM | UACC-257 > 54.6 µM | T47D 17.3 µM | K562 27 µM | SR > 100 µM | SF-539 > 65.9 µM | SK-MEL-5 > 100 µM | HOP-92 10.5 µM | A549 > 100 µM | CCRF-CEM > 100 µM | MDA-MB-231 53.8 µM | OVCAR-4 > 100 µM | SW-620 > 100 µM | TK-10 > 75.2 µM | NCI-H460 > 100 µM | HL-60 > 100 µM
> 100 µM: HCT-15

N#Cc1nc(COCCOCc2ccccc2)oc1N
> 100 µM: HCT-15
inactive: HOP-62 > 100 µM | COLO 205 > 100 µM | 786-0 > 100 µM | NCI-H23 > 100 µM | IGROV-1 > 100 µM | SF-295 > 100 µM | SNB-19 > 100 µM | NCI/ADR-RES > 100 µM | U-251 > 100 µM | SK-MEL-2 > 100 µM | UACC-62 > 100 µM | HCT-116 > 100 µM | HCC 2998 > 100 µM | SF-268 > 100 µM | PC-3 > 100 µM | SK-MEL-28 > 100 µM | OVCAR-3 > 100 µM | NCI-H522 23 µM | RPMI-8226 > 100 µM | M14 > 100 µM | RXF 393 > 100 µM | Hs-578T > 100 µM | SK-OV-3 > 100 µM | HT-29 > 100 µM | OVCAR-8 > 100 µM | OVCAR-5 > 100 µM | LOX IMVI > 100 µM | MCF7 > 100 µM | DU-145 > 100 µM | EKVX > 100 µM | Malme-3M > 100 µM | CAKI-1 > 100 µM | MOLT-4 > 100 µM | KM12 > 100 µM | MDA-N > 100 µM | UO-31 > 100 µM | BT-549 88.9 µM | NCI-H226 > 100 µM | MDA-MB-435 > 100 µM | SN12C > 100 µM | A498 > 100 µM | SNB-75 > 100 µM | ACHN > 100 µM | UACC-257 > 100 µM | T47D > 100 µM | K562 > 100 µM | SR > 100 µM | SF-539 > 100 µM | SK-MEL-5 > 100 µM | HOP-92 > 100 µM | A549 > 100 µM | CCRF-CEM 30 µM | MDA-MB-231 > 100 µM | OVCAR-4 > 100 µM | SW-620 > 100 µM | TK-10 > 100 µM | NCI-H460 > 100 µM | HL-60 > 100 µM

NC(=O)SCCC(N)C(=O)O (stereo unspecified)
inactive: HOP-62 > 100 µM | COLO 205 > 100 µM | 786-0 > 100 µM | NCI-H23 > 100 µM | IGROV-1 > 100 µM | SF-295 > 100 µM | SNB-19 > 100 µM | NCI/ADR-RES > 100 µM | U-251 > 100 µM | SK-MEL-2 > 100 µM | UACC-62 > 100 µM | HCT-116 > 100 µM | HCC 2998 > 100 µM | SF-268 > 100 µM | PC-3 > 100 µM | SK-MEL-28 > 100 µM | OVCAR-3 > 100 µM | NCI-H522 > 100 µM | RPMI-8226 > 100 µM | M14 > 100 µM | RXF 393 > 100 µM | Hs-578T > 100 µM | SK-OV-3 > 100 µM | HT-29 > 100 µM | OVCAR-8 > 100 µM | OVCAR-5 > 100 µM | LOX IMVI > 100 µM | MCF7 > 100 µM | DU-145 > 100 µM | EKVX > 100 µM | Malme-3M > 100 µM | CAKI-1 > 100 µM | MOLT-4 > 100 µM | KM12 > 100 µM | MDA-N > 100 µM | UO-31 > 100 µM | BT-549 > 100 µM | NCI-H226 > 100 µM | MDA-MB-435 > 100 µM | SN12C > 100 µM | A498 > 100 µM | SNB-75 > 100 µM | ACHN > 100 µM | UACC-257 > 100 µM | T47D > 100 µM | K562 > 100 µM | SR > 100 µM | SF-539 > 100 µM | SK-MEL-5 > 100 µM | HOP-92 > 100 µM | A549 > 100 µM | CCRF-CEM > 100 µM | MDA-MB-231 > 100 µM | OVCAR-4 > 100 µM | SW-620 > 100 µM | TK-10 > 100 µM | NCI-H460 > 100 µM | HL-60 > 81.3 µM
> 100 µM: HCT-15

Cc1ccc(NC(=O)c2cc(S(=O)(=O)Nc3nc4cccnc4[nH]3)c(SSc3cc(Cl)c(C(=O)Nc4ccc(C)cc4)cc3S(=O)(=O)Nc3nc4cccnc4[nH]3)cc2Cl)cc1
> 100 µM: HCT-15
inactive: HOP-62 > 100 µM | COLO 205 > 100 µM | 786-0 > 100 µM | NCI-H23 > 100 µM | IGROV-1 > 100 µM | SF-295 > 100 µM | SNB-19 > 100 µM | NCI/ADR-RES > 100 µM | U-251 > 100 µM | SK-MEL-2 > 100 µM | UACC-62 > 100 µM | HCT-116 > 100 µM | HCC 2998 > 100 µM | SF-268 > 100 µM | PC-3 > 100 µM | SK-MEL-28 > 100 µM | OVCAR-3 > 100 µM | NCI-H522 > 100 µM | RPMI-8226 > 100 µM | M14 > 100 µM | RXF 393 > 100 µM | Hs-578T > 100 µM | SK-OV-3 > 100 µM | HT-29 > 100 µM | OVCAR-8 > 100 µM | OVCAR-5 > 100 µM | LOX IMVI > 100 µM | MCF7 > 100 µM | DU-145 > 100 µM | EKVX > 100 µM | Malme-3M > 100 µM | CAKI-1 > 100 µM | MOLT-4 > 100 µM | KM12 > 100 µM | MDA-N > 100 µM | UO-31 > 100 µM | BT-549 > 100 µM | NCI-H226 > 100 µM | MDA-MB-435 > 100 µM | SN12C > 100 µM | A498 > 100 µM | SNB-75 > 100 µM | ACHN > 100 µM | UACC-257 > 100 µM | T47D > 100 µM | K562 > 100 µM | SR > 100 µM | SF-539 > 100 µM | SK-MEL-5 > 100 µM | HOP-92 > 100 µM | A549 > 100 µM | CCRF-CEM > 100 µM | MDA-MB-231 > 100 µM | OVCAR-4 > 100 µM | SW-620 > 100 µM | TK-10 > 100 µM | NCI-H460 > 100 µM | HL-60 > 100 µM
